{"source": "ChEMBL document CHEMBL5465560", "about": "“Selectivity Literature for EUbOPEN Chemogenomic Library” (2024)", "key": {"[1]": {"target": "T1, Serine/threonine-protein kinase TAO2 (Homo sapiens) (UniProt Q9UL54)", "T1 sequence (whole entry)": "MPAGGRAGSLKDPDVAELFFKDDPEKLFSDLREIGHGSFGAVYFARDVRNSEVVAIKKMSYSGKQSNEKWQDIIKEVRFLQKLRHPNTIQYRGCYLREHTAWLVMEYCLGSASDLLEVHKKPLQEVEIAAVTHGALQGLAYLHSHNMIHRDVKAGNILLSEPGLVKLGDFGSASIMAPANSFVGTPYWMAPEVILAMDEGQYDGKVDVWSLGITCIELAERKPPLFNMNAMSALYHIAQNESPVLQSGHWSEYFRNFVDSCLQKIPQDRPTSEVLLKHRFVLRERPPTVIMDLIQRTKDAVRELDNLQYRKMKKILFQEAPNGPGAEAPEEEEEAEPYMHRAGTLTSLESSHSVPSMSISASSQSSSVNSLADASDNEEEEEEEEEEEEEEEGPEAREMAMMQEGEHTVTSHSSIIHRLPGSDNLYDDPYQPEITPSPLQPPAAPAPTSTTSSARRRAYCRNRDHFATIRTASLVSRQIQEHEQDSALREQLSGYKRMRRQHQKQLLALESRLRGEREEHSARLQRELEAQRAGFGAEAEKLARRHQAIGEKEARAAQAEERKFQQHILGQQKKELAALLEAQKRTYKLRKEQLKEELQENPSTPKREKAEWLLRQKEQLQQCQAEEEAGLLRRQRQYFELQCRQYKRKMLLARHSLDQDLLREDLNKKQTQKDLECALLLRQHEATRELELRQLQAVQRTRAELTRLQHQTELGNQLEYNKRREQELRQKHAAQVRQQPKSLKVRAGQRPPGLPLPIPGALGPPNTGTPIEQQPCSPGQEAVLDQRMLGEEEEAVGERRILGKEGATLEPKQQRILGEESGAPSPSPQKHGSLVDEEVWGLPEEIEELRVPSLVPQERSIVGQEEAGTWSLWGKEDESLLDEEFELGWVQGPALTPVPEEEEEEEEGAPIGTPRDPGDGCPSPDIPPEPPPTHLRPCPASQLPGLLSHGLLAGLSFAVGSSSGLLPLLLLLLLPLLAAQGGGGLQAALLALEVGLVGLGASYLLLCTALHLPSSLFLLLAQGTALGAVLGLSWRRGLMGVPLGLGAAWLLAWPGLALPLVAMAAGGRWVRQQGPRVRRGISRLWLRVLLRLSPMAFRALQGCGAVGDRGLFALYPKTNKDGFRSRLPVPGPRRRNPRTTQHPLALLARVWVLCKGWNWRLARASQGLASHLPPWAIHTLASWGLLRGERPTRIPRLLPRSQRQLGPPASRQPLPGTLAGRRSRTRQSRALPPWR", "assay": "Selectivity interaction (KinomeScan (DiscoverX)) EUB0001049a TAOK2", "conditions": "at 1 µM"}, "[2]": {"target": "T2, Inhibitor of nuclear factor kappa-B kinase subunit alpha (Homo sapiens) (UniProt O15111)", "T2 sequence (whole entry)": "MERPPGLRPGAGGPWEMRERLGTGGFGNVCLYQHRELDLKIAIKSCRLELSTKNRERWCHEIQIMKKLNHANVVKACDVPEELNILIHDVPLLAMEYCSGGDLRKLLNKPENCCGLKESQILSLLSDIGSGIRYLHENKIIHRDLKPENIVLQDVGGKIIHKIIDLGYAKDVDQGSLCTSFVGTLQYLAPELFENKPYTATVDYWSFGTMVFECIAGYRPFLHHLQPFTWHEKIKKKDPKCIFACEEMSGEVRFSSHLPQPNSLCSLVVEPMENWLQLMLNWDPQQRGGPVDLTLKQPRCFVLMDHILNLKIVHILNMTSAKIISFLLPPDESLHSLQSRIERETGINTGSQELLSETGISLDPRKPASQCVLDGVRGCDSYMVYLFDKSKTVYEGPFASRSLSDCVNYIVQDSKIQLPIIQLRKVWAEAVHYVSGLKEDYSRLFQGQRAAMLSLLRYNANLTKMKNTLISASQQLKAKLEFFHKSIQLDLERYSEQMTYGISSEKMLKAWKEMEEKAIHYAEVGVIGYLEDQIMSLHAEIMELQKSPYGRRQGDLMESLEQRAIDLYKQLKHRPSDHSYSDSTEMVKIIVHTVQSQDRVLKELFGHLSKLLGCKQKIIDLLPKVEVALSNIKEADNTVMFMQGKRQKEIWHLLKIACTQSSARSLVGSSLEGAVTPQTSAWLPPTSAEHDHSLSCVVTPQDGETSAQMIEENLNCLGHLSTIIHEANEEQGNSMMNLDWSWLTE", "assay": "Selectivity interaction (Ambit KINOMEscan and KiNATiv profiling in Jurkat cells) EUB0000090b CHUK", "type": "cell-based", "conditions": "at 1 µM"}, "[3]": {"target": "Phosphorylase b kinase gamma catalytic chain, skeletal muscle/heart isoform (Homo sapiens) (UniProt Q16816)", "sequence (Q16816 whole entry, looked up, canonical isoform)": "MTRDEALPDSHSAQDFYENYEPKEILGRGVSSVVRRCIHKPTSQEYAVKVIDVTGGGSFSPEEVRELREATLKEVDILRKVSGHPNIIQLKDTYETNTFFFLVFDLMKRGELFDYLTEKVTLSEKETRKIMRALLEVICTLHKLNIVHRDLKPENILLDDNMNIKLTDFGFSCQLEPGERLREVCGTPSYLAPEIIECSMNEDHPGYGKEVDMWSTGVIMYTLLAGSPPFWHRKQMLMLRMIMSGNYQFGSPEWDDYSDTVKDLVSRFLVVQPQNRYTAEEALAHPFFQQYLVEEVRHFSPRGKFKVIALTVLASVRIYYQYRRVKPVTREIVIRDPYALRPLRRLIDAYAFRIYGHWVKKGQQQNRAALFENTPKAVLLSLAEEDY", "assay": "Selectivity interaction (KinomeScan (DiscoverX)) EUB0000092b PHKG1", "conditions": "at 10 µM"}, "[4]": {"target": "Phosphatidylinositol 4,5-bisphosphate 3-kinase catalytic subunit gamma isoform (Homo sapiens) (UniProt P48736)", "sequence (P48736 whole entry, looked up, canonical isoform)": "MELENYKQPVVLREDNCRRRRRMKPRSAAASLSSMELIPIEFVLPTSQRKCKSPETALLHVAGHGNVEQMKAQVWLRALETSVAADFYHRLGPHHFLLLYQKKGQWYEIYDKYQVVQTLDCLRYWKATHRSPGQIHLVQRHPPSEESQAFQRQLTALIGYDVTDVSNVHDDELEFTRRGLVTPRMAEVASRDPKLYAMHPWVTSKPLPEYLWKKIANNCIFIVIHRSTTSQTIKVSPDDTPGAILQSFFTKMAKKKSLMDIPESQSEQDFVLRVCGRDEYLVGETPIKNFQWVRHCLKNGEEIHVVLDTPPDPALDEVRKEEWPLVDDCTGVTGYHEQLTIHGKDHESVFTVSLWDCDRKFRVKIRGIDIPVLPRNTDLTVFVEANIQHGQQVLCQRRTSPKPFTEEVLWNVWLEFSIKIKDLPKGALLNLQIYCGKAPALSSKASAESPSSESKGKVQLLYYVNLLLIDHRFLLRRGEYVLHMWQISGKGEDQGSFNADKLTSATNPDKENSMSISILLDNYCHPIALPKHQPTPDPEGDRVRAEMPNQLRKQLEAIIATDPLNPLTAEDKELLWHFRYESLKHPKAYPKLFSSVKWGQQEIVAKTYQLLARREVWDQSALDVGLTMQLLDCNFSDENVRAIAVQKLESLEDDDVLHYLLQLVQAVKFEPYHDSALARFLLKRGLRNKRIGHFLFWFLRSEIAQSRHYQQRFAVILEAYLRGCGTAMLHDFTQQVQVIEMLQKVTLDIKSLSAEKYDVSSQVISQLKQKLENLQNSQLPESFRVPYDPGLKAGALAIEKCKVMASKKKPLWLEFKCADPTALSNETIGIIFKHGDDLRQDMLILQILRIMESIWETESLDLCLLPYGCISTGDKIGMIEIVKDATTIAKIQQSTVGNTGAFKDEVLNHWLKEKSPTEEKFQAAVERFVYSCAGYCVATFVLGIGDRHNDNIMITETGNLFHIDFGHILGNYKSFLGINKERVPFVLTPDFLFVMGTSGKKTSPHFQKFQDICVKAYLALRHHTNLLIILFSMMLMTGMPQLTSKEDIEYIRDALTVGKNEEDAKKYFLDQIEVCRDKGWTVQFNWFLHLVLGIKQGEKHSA", "assay": "Selectivity interaction (KinomeScan (DiscoverX)) EUB0000655a PIK3CG", "conditions": "at 10 µM"}, "[5]": {"target": "T3, Dual specificity mitogen-activated protein kinase kinase 3 (Homo sapiens) (UniProt P46734)", "T3 sequence (whole entry)": "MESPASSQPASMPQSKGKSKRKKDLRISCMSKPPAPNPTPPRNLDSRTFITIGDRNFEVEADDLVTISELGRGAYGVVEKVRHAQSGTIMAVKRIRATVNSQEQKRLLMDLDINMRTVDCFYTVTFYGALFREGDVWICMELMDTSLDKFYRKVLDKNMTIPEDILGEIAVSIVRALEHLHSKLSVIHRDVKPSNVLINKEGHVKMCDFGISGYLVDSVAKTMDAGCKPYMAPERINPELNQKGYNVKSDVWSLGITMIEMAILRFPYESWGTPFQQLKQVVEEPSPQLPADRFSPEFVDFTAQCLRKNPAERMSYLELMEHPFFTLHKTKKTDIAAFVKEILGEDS", "assay": "Selectivity interaction (KinomeScan (DiscoverX)) EUB0000666a MAP2K3", "conditions": "at 10 µM"}}}
{"smiles": "COc1cc(Nc2nc(C)cc(-c3cnn4nc(OC)ccc34)n2)cc(C(F)(F)F)c1", "values": [{"measurement": "% of control", "setting": "[1]", "result": 77, "unit": "%"}]}
{"smiles": "CN(C)C/C=C/C(=O)Nc1ccc(C(=O)N2CCCC(Nc3ncc(Cl)c(-c4c[nH]c5ccccc45)n3)C2)cc1", "note": "(stereo not given)", "values": [{"measurement": "% of control", "setting": "[2]", "result": 100, "unit": "%"}]}
{"smiles": "CCC(=O)N1CCN(c2ccc(-n3c(=O)ccc4cnc5ccc(-c6cnc7ccccc7c6)cc5c43)cc2C(F)(F)F)CC1", "values": [{"measurement": "% of control", "setting": "[3]", "result": 100, "unit": "%"}]}
{"smiles": "CN(C)CCOc1ccc(-c2nc(-c3ccncc3)c(-c3ccc4c(c3)CC/C4=N\\O)[nH]2)cc1", "values": [{"measurement": "% of control", "setting": "[4]", "result": 84, "unit": "%"}]}
{"smiles": "O=C(NOC[C@H](O)CO)c1ccc(F)c(F)c1Nc1ccc(I)cc1F", "values": [{"measurement": "% of control", "setting": "[5]", "result": 89, "unit": "%"}]}
